Tests used:
[1] = octanol/water, 25° C.; cited from earlier work
PR1 protein [2] = test: Evaluation of disease resistance: PR1 protein content of sprayed leaf by western blotting, tomato; format: in vivo; conditions: seedling sheet Z-1, band density relative to thiazinyl solution of same period
Experimental: (§1) The results are shown in the rows of “cultivation in paddy field” of Table 3 (rice) and Table 4 (tomato).
(§2) A 1/5000-are pot was filled with 2.9 kg of paddy field soil (clay loam). Ten young seedlings having 2 to 3 leaves grown by the above method were planted in a depth of 2 cm and watered, and the seedlings were placed in water at a depth of 3 cm. The seedlings were left to stand at 25° C. for a predetermined period shown in Table 3 or Table 4 (days (day) from moving to paddy field until evaluation). Each leaf sprayed with the nanoparticle (P) dispersion (or thiazinyl solution) was cut off, immersed in ion exchange water in a container for one minute, and taken out from the container. The liquid in the container was replaced by fresh ion exchange water. The leaf was further subjected to an operation of immersing in the fresh ion exchange water in the container for one minute and taking out of the container three times, whereby the nanoparticles (P) (or thiazinyl) attached to the leaf surface were removed. Then, proteins were extracted from the above leaf using 8-min Plant Tissue Total Protein Extraction Kit (available from Cosmo Bio Co., Ltd.), and the PR1 protein content, which is a marker of disease resistance, in the extracted proteins was determined as follows. The total protein content was quantified with Micro BCATM protein assay kit (available from THERMO Fisher Scientific). […]
(§3) The test was performed five times for each seedling. The PR1 protein content was evaluated by western blotting (including electrophoresis, transferring, and color development) specifically described later. […]
(§4) After a PR1 protein band was detected in the transferring membrane after the operations (1) to (3), the density of the band was quantified with Image J (available from National Institutes of Health, USA). In Examples 11 to 14, the quantified density of the band in each of Examples 11 to 14 was divided by the density of the band in Comparative Example 3. […]

House Momotaro (tomato) [3] = test: Evaluation of crop injury after treatment with nanoparticles (P) or thiazinyl, tomato; format: in vivo; set-up: key: 0: Harmless (healthy); 1: minimally damaged; 2: slightly damaged; 3: moderately damaged; 4: significantly damaged; 5: complete leaf firing; conditions: seedling sheet Z-1, 100 μL spray, thiazinyl 100 ppm
Experimental: as §1
(§5) Young seedlings were treated with the nanoparticles (P) or thiazinyl in the same manner as in the method described in <Evaluation of disease resistance>. Then, the degree of crop injury on the leaf surface was evaluated after a predetermined period of time (days (day) shown in Tables 3 and 4, from moving to the paddy field until evaluation). Specifically, crop injury was visually evaluated with the naked eye according to the following criteria.

PR1 protein [4] = test: Evaluation of disease resistance: PR1 protein content of sprayed leaf by western blotting, rice; format: in vivo; conditions: seedling sheet Z-1, band density relative to thiazinyl solution of same period
Experimental: as §1, §2, §3, §4

Hinohikari (rice) [5] = test: Evaluation of crop injury after treatment with nanoparticles (P) or thiazinyl, rice; format: in vivo; set-up: key: 0: Harmless (healthy); 1: minimally damaged; 2: slightly damaged; 3: moderately damaged; 4: significantly damaged; 5: complete leaf firing; conditions: seedling sheet Z-1, 100 μL spray, thiazinyl 100 ppm
Experimental: as §1, §5

House Momotaro (tomato) [6] = test: Aerial part growing ratio after treatment with nanoparticles (P) or thiazinyl, tomato; format: in vivo; conditions: seedling sheet Z-1, relative to thiazinyl solution of same period
Experimental: as §1
(§6) Young seedlings were treated with the nanoparticles (P) or thiazinyl in the same manner as in the method described in the <Evaluation of disease resistance>, and the aerial part growing state was evaluated after a predetermined period (shown in Tables 3 and 4, days (day) from moving to the paddy field until evaluation). Specifically, the aerial part growing state was evaluated by measuring the length of each part. The aerial part length in each example treated with the nanoparticles (P) for a predetermined period was divided by the aerial part length in the comparative example treated with a thiazinyl solution for the same period. The calculated value was regarded as the aerial part growing ratio.

Hinohikari (rice) [7] = test: Aerial part growing ratio after treatment with nanoparticles (P) or thiazinyl, rice; format: in vivo; conditions: seedling sheet Z-1, relative to thiazinyl solution of same period
Experimental: as §1, §6

[8] = 1 day from moving to paddy field
[9] = 3 days from moving to paddy field
[10] = 7 days from moving to paddy field

Compound	Log Pow [1]	also measured
Cc1c(F)c(F)c(COC(=O)[C@@H]2[C@H](/C=C(\Cl)C(F)(F)F)C2(C)C)c(F)c1F (racemic) [tefluthrin]	6.5	–
N#Cc1c(Cl)c(Cl)c(Cl)c(C#N)c1Cl [TPN, chlorothalonil]	2.92	–
CSC(=O)c1cccc2nnsc12 [acibenzolar-S-methyl]	3.1	–
CC1(C)[C@H](C(=O)O[C@H](C#N)c2cccc(Oc3ccccc3)c2)[C@@H]1/C=C\C(=O)OC(C(F)(F)F)C(F)(F)F [acrinathrin]	5.25	–
O=C1C2CC=CCC2C(=O)N1SC(Cl)(Cl)Cl (centres unmarked) [captan]	2.8	–
CCOP(=S)(OCC)Oc1cc(C)nc(C(C)C)n1 [diazinon]	3.3	–
CCOc1ccc(NC(=O)OC(C)C)cc1OCC [diethofencarb]	3.02	–
N#CC(CCc1ccc(Cl)cc1)(Cn1cncn1)c1ccccc1 (centres unmarked) [fenbuconazole]	3.23	–
COP(=S)(OC)Oc1ccc([N+](=O)[O-])c(C)c1 [fenitrothion]	3.43	–
C/C(=N/Nc1nc(C)cc(C)n1)c1ccccc1C [ferimzone]	2.89	–
O=C(NC(=O)c1c(F)cccc1F)Nc1ccc(Cl)c(Oc2ncc(C(F)(F)F)cc2Cl)c1 [fluazuron]	5.1	–
O=[N+]([O-])c1ccc(NS(=O)(=O)c2ccc(Cl)c(C(F)(F)F)c2)c(Cl)c1 [flusulfamide]	2.8	–
CC(C)Oc1cccc(NC(=O)c2ccccc2C(F)(F)F)c1 [flutolanil]	3.17	–
CC(C)[C@H](Nc1ccc(C(F)(F)F)cc1Cl)C(=O)OC(C#N)c1cccc(Oc2ccccc2)c1 (some centres unmarked) [fluvalinate]	2.9	–
CCOP(=O)(SC(C)CC)N1CCSC1=O (centres unmarked) [fosthiazate]	1.68	–
O=C1OCc2c(Cl)c(Cl)c(Cl)c(Cl)c21 [fthalide]	3.01	–

Compound	Log Pow [1]	also measured
Cc1nn(C)c(Cl)c1C(=O)Nc1cccc2c1C(C)OC2(C)C (centres unmarked) [furametpyr]	2.36	–
O=C(NC(=O)c1c(F)cccc1F)Nc1cc(Cl)c(OC(F)(F)C(F)F)c(Cl)c1 [hexaflumuron]	4.68	–
CC(C)OP(=O)(OC(C)C)SCc1ccccc1 [iprobenfos]	3.37	–
N#Cc1ccccc1NC(=O)c1snc(Cl)c1Cl [isotianil]	2.96	–
O=C(NC(=O)c1c(F)cccc1F)Nc1cc(Cl)c(OC(F)(F)C(F)C(F)(F)F)cc1Cl (centres unmarked) [lufenuron]	5.12	–
COCC(=O)N(c1c(C)cccc1C)C(C)C(=O)OC (centres unmarked) [metalaxyl]	1.75	–
COc1nn(CSP(=S)(OC)OC)c(=O)s1 [methidathion]	2.2	–
CCCCC(C#N)(Cn1cncn1)c1ccc(Cl)cc1 (centres unmarked) [myclobutanil]	2.9	–
C=CCCCOC(=O)C(CC)N(Cc1ccco1)C(=O)n1ccnc1 (centres unmarked) [pefurazoate]	3.0	–
CCCSP(=O)(OCC)Oc1cnn(-c2ccc(Cl)cc2)c1 (centres unmarked) [pyraclofos]	3.77	–
O=C1CCc2cccc3c2N1CC3 [pyroquilone]	1.42	–
Cc1ccc(NC(=O)c2snnc2C)cc1Cl [thiazinyl]	3.68	PR1 protein mass ratio (PR1 protein [2]; 1 day): 1.0; PR1 protein mass ratio (PR1 protein [2]; 3 days): 1.0; PR1 protein mass ratio (PR1 protein [2]; 7 days): 1.0; Crop injury (House Momotaro (tomato) [3]; [8]): 2; Crop injury (House Momotaro (tomato) [3]; [9]): 3; Crop injury (House Momotaro (tomato) [3]; [10]): 3; PR1 protein mass ratio (PR1 protein [4]; 1 day): 1.0; PR1 protein mass ratio (PR1 protein [4]; 3 days): 1.0; PR1 protein mass ratio (PR1 protein [4]; 7 days): 1.0; Crop injury (Hinohikari (rice) [5]; [8]): 3; Crop injury (Hinohikari (rice) [5]; [9]): 4; Crop injury (Hinohikari (rice) [5]; [10]): 4; Aerial part growth ratio (House Momotaro (tomato) [6]; 1 day): 1.0; Aerial part growth ratio (House Momotaro (tomato) [6]; 3 days): 1.0; Aerial part growth ratio (House Momotaro (tomato) [6]; 7 days): 1.0; Aerial part growth ratio (Hinohikari (rice) [7]; 1 day): 1.0; Aerial part growth ratio (Hinohikari (rice) [7]; 3 days): 1.0; Aerial part growth ratio (Hinohikari (rice) [7]; 7 days): 1.0
COC(=O)c1c(C(F)F)nc(C(F)(F)F)c(C2=NCCS2)c1CC(C)C [thiazopyr]	3.89	–
CS/C(C)=N\OC(=O)N(C)SN(C)C(=O)O/N=C(\C)SC [thiodicarb]	1.62	–
COC(=O)NC(=S)Nc1ccccc1NC(=S)NC(=O)OC [thiophanate-methyl]	1.5	–
CN(C)C(=S)SSC(=S)N(C)C [thiuram]	1.73	–
